According to US9999603B2, “Compositions and methods including leelamine and arachidonyl trifluoromethyl ketone relating to treatment of cancer” (The Penn State Research Foundation, priority 2013, dated 2018):

Legend:
Format in all cases: cell-based, human
[1] = tested on: fibroblast cell line FF2441; assay: MTS cell viability assay, normal fibroblasts FF2441; conditions: 1-5 μM leelamine in DMSO, 24 hours
Protocol: (§1) Human fibroblast FF2441 cells and metastatic melanoma cell lines UACC 903 and 1205 Lu were maintained in DMEM (Invitrogen), supplemented with 10% FBS (Hyclone). Cell lines were maintained in a 37° C. humidified 5% CO2 atmosphere incubator and periodically monitored for phenotypic and genotypic characteristics, and for tumorigenic potential.
(§2) Viability of fibroblast and melanoma cells (UACC 903 and 1205 Lu) following treatment with ATK, leelamine, nanolipoATK, and nanolipoATK-999 was measured by MTS assay (Promega, Madison, Wis.). Briefly, 5×10^3 melanoma or fibroblast (FF2441) cells were plated per well in 100 μL of media and grown in 96-well plates for 48 hours. Cells were then treated with ATK alone, leelamine alone, nanolipoATK, nanolipolee, or nanoleelATK-999 for 24 hours before measuring cell viability.
The melanoma cell lines UACC 903 and 1205 Lu, and normal human fibroblast cells FF2441, were treated with 1 μM, 1.5 μM, 2 μM, 2.5 μM, 3 μM, 3.5 μM, 4 μM, 4.5 μM, or 5 μM leelamine in DMSO. Cells were maintained in DMEM supplemented with 10% FBS and L-glutamine. After 24 hours of treatment, an MTS assay was performed to determine the fractional cell viability relative to the DMSO control. IC50 values were calculated using GraphPad Prism software.

UACC 903 melanoma cells = assay: MTS cell viability assay, UACC 903 melanoma cells; conditions: free drug in DMSO, 24 hours treatment, read-out: half-maximal inhibitory concentration (IC50), cell viability
Protocol: as §1, §2
(§3) IC50 values were calculated using Prism 4.0 GraphPad Software. Calculsyn software was used to evaluate synergy.
(§4) The melanoma cell lines UACC 903 and 1205 Lu, and normal human fibroblast cells FF2441, were treated with 1 μM, 1.5 μM, 2 μM, 2.5 μM, 3 μM, 3.5 μM, 4 μM, 4.5 μM, or 5 μM leelamine in DMSO. […] IC50 values were calculated using GraphPad Prism software.
(§5) The melanoma cell lines UACC 903 and 1205 Lu were treated with 15 μM, 20 μM, 25 μM, 30 μM, 35 μM, 40 μM, 45 μM, 50 μM, or 55 μM ATK in DMSO. […] IC50 values were calculated using GraphPad Prism software.

1205 Lu melanoma cells = assay: MTS cell viability assay, 1205 Lu melanoma cells; conditions: free drug in DMSO, 24 hours treatment, read-out: half-maximal inhibitory concentration (IC50), cell viability
Protocol: as §1, §2, §3, §4, §5

**Q.** Which results are given for `CC(C)c1ccc2c(c1)CC[C@H]1[C@](C)(CN)CCC[C@]21C` [leelamine, (1R,4aS,10aR)-1,2,3,4,4a,9,10,10a-octahydro-1-,4a-dimethyl-7-(1-methylethyl)-1-phenanthrenemethanamine]?
**A.** killing of normal fibroblast cells [1]: did not kill; IC50 (UACC 903 melanoma cells): 2.8 µM; IC50 (1205 Lu melanoma cells): 3.8 µM
